Source: article PMC12282101, “Heat shock protein 90 chaperone activity is required for hepatitis A virus replication” (Journal of Virology, 2025)
Where a name gives a salt, the structure may show the parent alone.

How the values were obtained:
[1] = test system: 18f-NLuc reporter virus; assay: microbe, parasite or virus in culture; assay type: cell-based, Hepatitis A virus; conditions: for activity at 10 µM: Hepatovirus A, Huh-7.5.1, 72 h, read-out: Normalized HAV production
[2] = test system: Huh-7.5.1 cells; assay: Cell viability in the chemical screen (Cell TiterGlo); conditions: 10 µM compound, 72 h

Row | SMILES | activity at 10 µM [1] | Viability Percent DMSO [2] | Normalized HAV production [1]
1 | O=c1[nH]c(=O)n([C@H]2C[C@H](O)[C@@H](CO)O2)cc1/C=C/Br [Brivudine] | 94% | 110 Percent DMSO | 
2 | Cc1nnc(C(=O)NC(C)(C)c2nc(C(=O)NCc3ccc(F)cc3)c(O)c(=O)n2C)o1 [Raltegravir] | 124% | 132 Percent DMSO | 
3 | CC(=O)OCC(CCn1cnc2cnc(N)nc21)COC(C)=O [Famciclovir] | 115% | 123 Percent DMSO | 
4 | CC1(C)[C@@H](O[C@H]2O[C@H](C(=O)O)[C@@H](O)[C@H](O)[C@H]2O[C@@H]2O[C@H](C(=O)O)[C@@H](O)[C@H](O)[C@H]2O)CC[C@]2(C)[C@H]3C(=O)C=C4[C@@H]5C[C@@](C)(C(=O)O)CC[C@]5(C)CC[C@@]4(C)[C@]3(C)CC[C@@H]12 [Glycyrrhizin] | 79% | 124 Percent DMSO | 
5 | CN(C)CC[C@@H](c1ccc(Cl)cc1)c1ccccn1 [Dexchlorpheniramine Maleate] | 74% | 118 Percent DMSO | 
6 | CCOC(=O)CCC(=O)O[C@H]1[C@H](O[C@@H]2[C@@H](C)[C@H](O[C@H]3C[C@@](C)(OC)[C@@H](O)[C@H](C)O3)[C@@H](C)C(=O)O[C@H](CC)[C@@](C)(O)[C@H](O)[C@@H](C)C(=O)[C@H](C)C[C@@]2(C)O)O[C@H](C)C[C@@H]1N(C)C [Erythromycin ethylsuccinate] | 60% | 107 Percent DMSO | 
7 | C=CC1=C(C(=O)O)N2C(=O)[C@@H](NC(=O)/C(=N\O)c3csc(N)n3)[C@H]2SC1 [Cefdinir] | 97% | 101 Percent DMSO | 
8 | COc1ccc([C@H]2OC[C@H]3[C@@H]2CO[C@H]3c2ccc(O[C@@H]3O[C@H](CO)[C@@H](O)[C@H](O)[C@H]3O)c(OC)c2)cc1OC [Forsythin] |  | 127 Percent DMSO | 1.06
9 | OC[C@H]1O[C@@H](O[C@@H]2OC=C[C@H]3[C@H](O)[C@@H]4O[C@]4(CO)[C@@H]23)[C@H](O)[C@@H](O)[C@@H]1O [Catalpol] | 98% | 128 Percent DMSO | 
10 | CC1(C)S[C@@H]2[C@H](NC(=O)[C@H](NC(=O)N3CCNC3=O)c3ccccc3)C(=O)N2[C@H]1C(=O)O [Azlocillin sodium] | 132% | 98 Percent DMSO | 
11 | Nc1nc(O)c2ncn(COC(CO)CO)c2n1 [Ganciclovir] | 87% | 115 Percent DMSO | 
12 | Cc1c(O)cccc1C(=O)N[C@@H](CSc1ccccc1)[C@H](O)CN1C[C@H]2CCCC[C@H]2C[C@H]1C(=O)NC(C)(C)C [Nelfinavir Mesylate] | 69% | 88 Percent DMSO | 
13 | C[C@@H]1O[C@@H](O[C@H]2[C@H](Oc3cc(O)c4c(c3)O[C@H](c3ccc(O)cc3)CC4=O)O[C@H](CO)[C@@H](O)[C@@H]2O)[C@H](O)[C@H](O)[C@H]1O [Naringin] | 124% | 115 Percent DMSO | 
14 | C=CC1=C(C(=O)O)N2C(=O)[C@@H](NC(=O)/C(=N\OCC(=O)O)c3csc(N)n3)[C@H]2SC1 [Cefixime] | 90% | 109 Percent DMSO | 
15 | COC(=O)N[C@H](C(=O)N1CCC[C@H]1c1nc(-c2ccc(-c3ccc(-c4c[nH]c([C@@H]5CCCN5C(=O)[C@@H](NC(=O)OC)C(C)C)n4)cc3)cc2)c[nH]1)C(C)C [Daclatasvir dihydrochloride] | 88% | 125 Percent DMSO | 
16 | Nc1nc2c(ncn2[C@@H]2O[C@H](CO)[C@@H](O)[C@H]2O)c(=O)[nH]1 [Guanosine] | 88% | 126 Percent DMSO | 
17 | CC(C)=O.COC(=O)N[C@H](C(=O)N1CC2(CC2)C[C@H]1c1ncc(-c2ccc3c(c2)C(F)(F)c2cc(-c4ccc5nc([C@@H]6[C@H]7CC[C@H](C7)N6C(=O)[C@@H](NC(=O)OC)C(C)C)[nH]c5c4)ccc2-3)[nH]1)C(C)C [Ledipasvir acetone] |  | 172 Percent DMSO | 0.48
18 | CN(C)[C@@H]1C(O)=C(C(N)=O)C(=O)[C@@]2(O)C(O)=C3C(=O)c4c(O)cccc4[C@@](C)(O)[C@H]3[C@H](O)[C@@H]12 [Oxytetracycline] | 87% | 103 Percent DMSO | 
19 | CCOC(=O)c1c(CSc2ccccc2)n(C)c2cc(Br)c(O)c(CN(C)C)c12.Cl [Arbidol hydrochloride] |  | 105 Percent DMSO | 0.78
20 | Nc1ccn([C@H]2CC[C@@H](CO)O2)c(=O)n1 [Zalcitabine] | 98% | 99 Percent DMSO | 
21 | CC(C)(C)C(=O)OCOP(=O)(COCCn1cnc2c(N)ncnc21)OCOC(=O)C(C)(C)C [Adefovir dipivoxil] | 138% | 74 Percent DMSO | 
22 | C[C@@H]1CCO[C@H]2Cn3cc(C(=O)NCc4ccc(F)cc4F)c(=O)c(O)c3C(=O)N12 [Dolutegravir] | 49% | 159 Percent DMSO | 
23 | Nc1ncnc2c1ncn2[C@@H]1O[C@H](CO)[C@@H](O)[C@@H]1O [Vidarabine] | 104% | 119 Percent DMSO | 
24 | COC(=O)c1cc(OC)c2c(c1-c1c(CO)cc(OC)c3c1OCO3)OCO2 [Bicyclol] | 105% | 115 Percent DMSO | 
25 | CCOCc1nc2c(N)nc3ccccc3c2n1CC(C)(C)O [Resiquimod] | 130% | 107 Percent DMSO | 

Row | SMILES | activity at 10 µM [1] | Viability Percent DMSO [2] | Normalized HAV production [1]
26 | CN(C(=O)CN(CCO)CC(=O)N(C)C(C)(C)Cc1ccccc1)C(C)(C)Cc1ccccc1 [Oxethazaine] | 76% | 102 Percent DMSO | 
27 | Cc1cc(/C=C/C#N)cc(C)c1Nc1ccnc(Nc2ccc(C#N)cc2)n1 [Rilpivirine] | 71% | 132 Percent DMSO | 
28 | CC(=O)Oc1c(C)c(C)c2c(c1C)CCC(C)(CCC[C@H](C)CCC[C@H](C)CCCC(C)C)O2 (some centres unmarked) [Vitamin E Acetate] | 133% | 82 Percent DMSO | 
29 | O=c1[nH]cc(F)c(=O)[nH]1 [Fluorouracil] | 84% | 103 Percent DMSO | 
30 | Cc1cccc(C)c1OCC(=O)N[C@@H](Cc1ccccc1)[C@@H](O)C[C@H](Cc1ccccc1)NC(=O)[C@H](C(C)C)N1CCCNC1=O [Lopinavir] | 43% | 126 Percent DMSO | 
31 | CC1(C)[C@@H](O[C@H]2O[C@H](C(=O)O)[C@@H](O)[C@H](O)[C@H]2O[C@@H]2O[C@H](C(=O)O)[C@@H](O)[C@H](O)[C@H]2O)CC[C@]2(C)[C@H]3C(=O)C=C4[C@@H]5C[C@@](C)(C(=O)O)CC[C@]5(C)CC[C@@]4(C)[C@]3(C)CC[C@@H]12.N.N [Diammonium Glycyrrhizinate] |  | 116 Percent DMSO | 0.78
32 | Nc1ccn([C@@H]2O[C@H](CO)[C@@H](O)[C@@H]2O)c(=O)n1 [Cytarabine] | 66% | 97 Percent DMSO | 
33 | O=C(/C=C\n1cnc(-c2cc(C(F)(F)F)cc(C(F)(F)F)c2)n1)NNc1ccccn1 [Verdinexor] | 22% | 174 Percent DMSO | 
34 | CC1(C)O[C@H]2CC(=O)OC[C@]23[C@H]2CC[C@@]4(C)[C@H](c5ccoc5)OC(=O)[C@H]5O[C@]54[C@]2(C)C(=O)C[C@@H]13 [Limonin] | 85% | 111 Percent DMSO | 
35 | O=c1[nH]c(=O)n([C@H]2C[C@H](O)[C@@H](CO)O2)cc1I [Dendrid] | 102% | 103 Percent DMSO | 
36 | Cc1cc(F)c(C(=O)Nc2cccc(-c3nncn3C(C)C)n2)cc1-n1cnc(C2CC2)c1 [Selonsertib] | 38% | 131 Percent DMSO | 
37 | Cc1cn([C@H]2C=C[C@@H](CO)O2)c(=O)[nH]c1=O [Stavudine] | 101% | 101 Percent DMSO | 
38 | CCOC(=O)c1c(C)n(C)c2ccc(O)cc12 [Mecarbinate] |  | 100 Percent DMSO | 1.17
39 | Cl.N=C(N=C(N)N)N1CCOCC1 [Moroxydine hydrochloride] |  | 125 Percent DMSO | 1.21
40 | O=c1[nH]cnc2c1ncn2[C@H]1CC[C@@H](CO)O1 [Didanosine] | 155% | 108 Percent DMSO | 
41 | COc1c(-c2ccc3cc(NS(C)(=O)=O)ccc3c2)cc(-n2ccc(=O)[nH]c2=O)cc1C(C)(C)C [Dasabuvir] | 14% | 116 Percent DMSO | 
42 | CC[C@@H](CO)NCCN[C@@H](CC)CO [Ethambutol dihydrochloride] | 83% | 112 Percent DMSO | 
43 | Cn1c(Cn2ccc(C(F)(F)F)c(Oc3cc(Cl)cc(C#N)c3)c2=O)n[nH]c1=O [Doravirine] | 140% | 95 Percent DMSO | 
44 | Cc1cn([C@H]2O[C@@H](CO)[C@H](O)[C@H]2F)c(=O)[nH]c1=O [Clevudine] | 84% | 132 Percent DMSO | 
45 | Cc1cc(C#N)cc(C)c1Oc1nc(Nc2ccc(C#N)cc2)nc(N)c1Br [Etravirine] | 113% | 112 Percent DMSO | 
46 | O=C1CCC[C@@H]2[C@H]3CCC[N+]4([O-])CCC[C@@H](CN12)[C@@H]34 (some centres unmarked) [Oxymatrine] | 100% | 92 Percent DMSO | 
47 | O=C(O)P(=O)(O)O [Foscarnet sodium] | 109% | 94 Percent DMSO | 
48 | COC(=O)N[C@H](C(=O)N[C@@H](Cc1ccccc1)[C@@H](O)CN(Cc1ccc(-c2ccccn2)cc1)NC(=O)[C@@H](NC(=O)OC)C(C)(C)C)C(C)(C)C [Atazanavir] | 96% | 130 Percent DMSO | 
49 | CO/N=C(\C(=O)N[C@@H]1C(=O)N2C(C(=O)O)=C(COC(C)=O)CS[C@H]12)c1csc(N)n1 [Cefotaxime sodium] | 80% | 113 Percent DMSO | 
